Among the data in PMC11178787, “Development of a natural product optimization strategy for inhibitors against MraY, a promising antibacterial target” (Nature Communications, 2024) are MIC and IC50 values, retold here.

Values after ≈ are worked out from the molar mass of the structure shown.

For one experiment, the system named is T1, K. pneumoniae ATCC 13883.
T1 construct: ATCC 13883
The experiment in a line: microbe, parasite or virus in culture. Particulars: Klebsiella pneumoniae, ATCC13883. How it is done:
(§1) MICs were determined by a microdilution broth method as recommended by the CLSI with MHB-II. For MICs of stable analogues, a 2-fold dilution of each compound was prepared in DMSO at 100-fold of the final concentration. The strains were inoculated with 5 × 10^5 cfu/mL in 96-well plates (each 100 μL/well), and 1 μL of DMSO solutions of the samples were added (contained less than 1% DMSO). The plates were incubated at 37 °C for 18 h and then MICs were determined. MICs of stable analogues in Table 1 were the highest value in three trials. MICs in Supplementary Table 1 were determined in one trial.  Fig. 2 Results of biological evaluations of hydrazone library. a General structures of hydrazine fragment moiety are shown. Each hydrazine class are represented by different colours (green; BZ, cyan; PA, grey; AC, yellow; AA, orange; LA). b–h MraY inhibitory activity and antibacterial activity of the hydrazone library. The bar graphs show the relative enzyme activity with DMSO as 100% when the compound is treated at given concentration (b,c; TUN at 100 nM, d,e; MRY at 10 nM, f.g; MRD at 100 nM, h; CAP at 1000 nM. n = 1), with the lower bars indicating higher inhibitory activity. The colour of the bars corresponds to Fig. 2a. […] Data of control compounds (van: vancomycin, col: colistin) are shown left column in each panel. E. faecium ATCC 35667, S. aureus ATCC 29213, P. aeruginosa ATCC 27853, K. pneumoniae ATCC 13883, E. cloacae ATCC 13047, A. baumannii ATCC 19606, E. coli ATCC 25922.

For the next experiment, the system named is T2, S. aureus ATCC 29213.
T2 construct: ATCC 29213
Kind of experiment: microbe, parasite or virus in culture. Particulars: Staphylococcus aureus, ATCC29213. How it is done:
as §1

A further experiment has as its system T3, E. cloacae ATCC 13047.
T3 construct: ATCC 13047
Kind of experiment: microbe, parasite or virus in culture. Particulars: Enterobacter cloacae, ATCC13047. How it is done:
as §1

The next experiment concerns T4, A. baumannii ATCC 19606.
T4 construct: ATCC 19606
The experiment in a line: microbe, parasite or virus in culture. To be noted: Acinetobacter baumannii, ATCC19606. How it is done: as §1

In a further experiment the test system is T5, E. coli ATCC 25922.
T5 construct: ATCC 25922
Kind of experiment: microbe, parasite or virus in culture. To be noted: Escherichia coli, ATCC25922. How it is done: as §1

For the next experiment, the system named is T6, E. faecium ATCC 35667.
T6 construct: ATCC 35667
The experiment in a line: microbe, parasite or virus in culture. To be noted: Enterococcus faecium, ATCC35667. How it is done:
as §1

Another experiment concerns T7, P. aeruginosa ATCC 27853.
T7 construct: ATCC 27853
The experiment in a line: microbe, parasite or virus in culture. Particulars: Pseudomonas aeruginosa, ATCC27853. The protocol:
as §1

The next experiment has as its target MraYSA (S. aureus MraY) (Staphylococcus aureus, UniProt Q2FZ93). Kind of experiment: fluorescence assay of dansylated lipid I formation. In kind it is biochemical.

MraYSA (S. aureus MraY), sequence (Q2FZ93 whole entry): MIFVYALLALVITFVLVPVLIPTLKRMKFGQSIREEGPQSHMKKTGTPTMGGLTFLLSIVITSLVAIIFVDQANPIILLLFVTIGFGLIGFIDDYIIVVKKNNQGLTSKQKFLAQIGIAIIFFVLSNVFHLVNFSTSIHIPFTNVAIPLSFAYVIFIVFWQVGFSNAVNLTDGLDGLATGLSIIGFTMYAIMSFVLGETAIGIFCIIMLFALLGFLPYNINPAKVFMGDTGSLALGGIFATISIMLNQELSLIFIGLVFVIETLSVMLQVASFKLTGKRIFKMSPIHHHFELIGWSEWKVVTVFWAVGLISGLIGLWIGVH

Take `CO[C@H]1/C=C/O[C@@]2(C)Oc3c(C)c(O)c4c(O)c(c(/C=N/N5CCN(C)CC5)c(O)c4c3C2=O)NC(=O)/C(C)=C\C=C\[C@H](C)[C@H](O)[C@@H](C)[C@@H](O)[C@@H](C)[C@H](OC(C)=O)[C@@H]1C` [rifampicin]: the MIC is 50 µM (≈ 41.1 µg/mL) with K. pneumoniae ATCC 13883; less than 0.5 µM in the experiment on S. aureus ATCC 29213; 50 µM (≈ 41.1 µg/mL) in the experiment on E. cloacae ATCC 13047; 5 µM (≈ 4.11 µg/mL) in the experiment on A. baumannii ATCC 19606; 5 µM (≈ 4.11 µg/mL) in the experiment with E. coli ATCC 25922; 5 µM (≈ 4.11 µg/mL) in the experiment on E. faecium ATCC 35667. The compound also came in with an MIC with P. aeruginosa ATCC 27853 of 50 µM (≈ 41.1 µg/mL).
`CC[C@H]1OC(=O)[C@H](C)[C@@H](O[C@H]2C[C@@](C)(OC)[C@@H](O)[C@H](C)O2)[C@H](C)[C@@H](O[C@@H]2O[C@H](C)C[C@H](N(C)C)[C@H]2O)[C@](C)(O)C[C@@H](C)C(=O)[C@H](C)[C@@H](O)[C@]1(C)O` [erythromycin]: the MIC against K. pneumoniae ATCC 13883 was greater than 50 µM; in the experiment on S. aureus ATCC 29213, less than 0.5 µM; in the experiment with E. cloacae ATCC 13047 it was greater than 50 µM; against A. baumannii ATCC 19606, 50 µM (≈ 36.7 µg/mL); against E. coli ATCC 25922, 50 µM (≈ 36.7 µg/mL); against E. faecium ATCC 35667 it was less than 0.5 µM. This compound registered an MIC against P. aeruginosa ATCC 27853 greater than 50 µM.
For the compound `CC[C@H]1OC(=O)[C@H](C)[C@@H](O[C@H]2C[C@@](C)(OC)[C@@H](O)[C@H](C)O2)[C@H](C)[C@@H](O[C@@H]2O[C@H](C)C[C@H](N(C)C)[C@H]2O)[C@](C)(O)C[C@@H](C)CN(C)[C@H](C)[C@@H](O)[C@]1(C)O` [azithromycin], the MIC against K. pneumoniae ATCC 13883 is 5 µM (≈ 3.74 µg/mL); in the experiment on S. aureus ATCC 29213, 5 µM (≈ 3.74 µg/mL); in the experiment on E. cloacae ATCC 13047 it was 50 µM (≈ 37.4 µg/mL); in the experiment with A. baumannii ATCC 19606, 50 µM (≈ 37.4 µg/mL); with E. coli ATCC 25922, 5 µM (≈ 3.74 µg/mL); with E. faecium ATCC 35667, less than 0.5 µM. This compound also came in with an MIC against P. aeruginosa ATCC 27853 of 50 µM (≈ 37.4 µg/mL).
A word on the IC50: it is the concentration that gives 50% inhibition. Read a low IC50 as greater potency in that assay. Regarding `CC(C)(C)c1ccc(C(=O)N/N=C/c2ccc(CN[C@H](C(=O)O)[C@H](O[C@@H]3O[C@H](CN)[C@@H](O)[C@H]3O)[C@H]3O[C@@H](n4ccc(=O)[nH]c4=O)[C@H](O)[C@@H]3O)cc2)cc1` [MRYp-BZ2], half-maximal inhibition on MraYSA (S. aureus MraY) (IC50) was put at 2.4 nM.
For `CN[C@@H]1[C@H](O[C@H]2[C@H](O[C@H]3[C@H](O)[C@@H](O)[C@H](N=C(N)N)[C@@H](O)[C@@H]3N=C(N)N)O[C@@H](C)[C@]2(O)C=O)O[C@@H](CO)[C@H](O)[C@H]1O` [streptomycin], the MIC against K. pneumoniae ATCC 13883 is 50 µM (≈ 29.1 µg/mL); in the experiment on S. aureus ATCC 29213, 50 µM (≈ 29.1 µg/mL); with E. cloacae ATCC 13047 it was greater than 50 µM; against A. baumannii ATCC 19606 it was greater than 50 µM; in the experiment with E. coli ATCC 25922, 50 µM (≈ 29.1 µg/mL); in the experiment with E. faecium ATCC 35667 it was 50 µM (≈ 29.1 µg/mL). Also, in the experiment on P. aeruginosa ATCC 27853, the MIC was 50 µM (≈ 29.1 µg/mL).
